From PMC7015794 (Biochemistry, 2020)

Key:
[1] = molecular target: T1, (1,3)-β-D-glucan synthase (GS), catalytic subunit Fks1p (Saccharomyces cerevisiae, UniProt P38631); assay: GS activity assay; type: biochemical
[2] = molecular target: T1, (1,3)-β-D-glucan synthase (GS), catalytic subunit Fks1p; assay: GS activity assay with […] UDP-Glc; type: biochemical

T1 sequence (P38631 whole entry): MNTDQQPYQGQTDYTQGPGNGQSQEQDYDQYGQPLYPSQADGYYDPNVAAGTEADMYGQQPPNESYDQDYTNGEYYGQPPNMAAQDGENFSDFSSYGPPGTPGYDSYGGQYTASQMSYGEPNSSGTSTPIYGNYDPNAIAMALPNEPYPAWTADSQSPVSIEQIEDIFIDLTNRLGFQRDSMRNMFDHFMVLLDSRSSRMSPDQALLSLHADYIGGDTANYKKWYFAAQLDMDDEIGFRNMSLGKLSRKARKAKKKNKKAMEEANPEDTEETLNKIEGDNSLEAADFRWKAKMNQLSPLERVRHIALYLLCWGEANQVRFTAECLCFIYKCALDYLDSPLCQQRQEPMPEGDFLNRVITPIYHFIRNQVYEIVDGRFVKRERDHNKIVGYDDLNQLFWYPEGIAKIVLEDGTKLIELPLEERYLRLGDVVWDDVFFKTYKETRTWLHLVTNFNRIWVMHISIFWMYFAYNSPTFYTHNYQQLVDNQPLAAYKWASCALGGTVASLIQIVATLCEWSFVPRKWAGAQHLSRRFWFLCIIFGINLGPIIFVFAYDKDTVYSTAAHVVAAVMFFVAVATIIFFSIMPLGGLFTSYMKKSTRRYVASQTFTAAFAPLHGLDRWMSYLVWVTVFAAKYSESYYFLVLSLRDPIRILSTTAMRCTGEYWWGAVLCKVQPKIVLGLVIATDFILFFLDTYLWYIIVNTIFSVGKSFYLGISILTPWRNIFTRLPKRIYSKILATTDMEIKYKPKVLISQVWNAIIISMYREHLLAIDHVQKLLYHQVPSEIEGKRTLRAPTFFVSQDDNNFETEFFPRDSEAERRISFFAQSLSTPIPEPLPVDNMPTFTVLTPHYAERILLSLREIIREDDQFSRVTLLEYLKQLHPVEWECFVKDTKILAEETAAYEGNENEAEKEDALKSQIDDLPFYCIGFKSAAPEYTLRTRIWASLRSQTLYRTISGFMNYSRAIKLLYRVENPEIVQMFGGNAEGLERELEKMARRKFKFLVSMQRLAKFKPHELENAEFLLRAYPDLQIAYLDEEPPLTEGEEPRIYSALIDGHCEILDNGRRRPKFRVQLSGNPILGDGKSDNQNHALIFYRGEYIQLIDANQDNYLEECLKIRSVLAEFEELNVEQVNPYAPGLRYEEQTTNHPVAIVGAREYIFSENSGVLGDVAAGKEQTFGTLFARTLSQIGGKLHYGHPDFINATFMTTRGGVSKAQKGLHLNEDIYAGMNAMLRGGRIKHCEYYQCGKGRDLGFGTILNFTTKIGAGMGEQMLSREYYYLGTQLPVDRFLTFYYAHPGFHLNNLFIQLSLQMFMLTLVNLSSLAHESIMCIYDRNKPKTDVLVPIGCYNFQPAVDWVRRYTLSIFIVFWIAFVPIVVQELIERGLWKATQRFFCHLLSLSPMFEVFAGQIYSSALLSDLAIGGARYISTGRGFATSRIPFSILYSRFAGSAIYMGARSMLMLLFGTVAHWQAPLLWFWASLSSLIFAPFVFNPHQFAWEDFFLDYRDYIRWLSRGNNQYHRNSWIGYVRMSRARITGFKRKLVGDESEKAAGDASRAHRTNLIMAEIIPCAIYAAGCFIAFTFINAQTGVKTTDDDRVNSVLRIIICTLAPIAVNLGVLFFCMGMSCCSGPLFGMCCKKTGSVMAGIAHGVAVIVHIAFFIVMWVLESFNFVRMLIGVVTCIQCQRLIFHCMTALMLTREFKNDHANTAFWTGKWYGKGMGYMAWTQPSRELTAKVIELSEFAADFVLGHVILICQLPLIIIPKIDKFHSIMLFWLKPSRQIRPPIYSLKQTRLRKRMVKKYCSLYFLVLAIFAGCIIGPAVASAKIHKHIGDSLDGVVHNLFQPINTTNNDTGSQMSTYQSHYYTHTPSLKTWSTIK
T1 sequence (P06780 2-206, further chain): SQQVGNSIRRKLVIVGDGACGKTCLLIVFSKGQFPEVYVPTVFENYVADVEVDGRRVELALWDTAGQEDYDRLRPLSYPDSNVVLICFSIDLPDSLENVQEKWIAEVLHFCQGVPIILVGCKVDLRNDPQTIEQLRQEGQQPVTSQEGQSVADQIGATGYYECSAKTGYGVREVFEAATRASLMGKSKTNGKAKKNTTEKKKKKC

Row | SMILES | IC50 [1] [µM] | IC50 [2] [µM]
1 | CC[C@H](C)C[C@H](C)CCCCCCCCC(=O)N[C@H]1C[C@@H](O)[C@@H](NCCN)NC(=O)[C@@H]2[C@@H](O)CCN2C(=O)[C@H]([C@H](O)CCN)NC(=O)[C@H]([C@H](O)[C@@H](O)c2ccc(O)cc2)NC(=O)[C@@H]2C[C@@H](O)CN2C(=O)[C@H]([C@@H](C)O)NC1=O [CFN, caspofungin] | 0.238 | –
2 | O=c1ccn([C@@H]2O[C@H](COP(=O)(O)OP(=O)(O)O[C@H]3O[C@H](CO)[C@@H](O)[C@H](F)[C@H]3O)[C@@H](O)[C@H]2O)c(=O)[nH]1 [UDP-3’-F-Glc] | – | 5300 ± 1000
3 | O=c1ccn([C@@H]2O[C@H](COP(=O)(O)OP(=O)(O)O[C@H]3O[C@H](CO)[C@@H](O)C[C@H]3O)[C@@H](O)[C@H]2O)c(=O)[nH]1 [UDP-3’-dGlc] | – | 2400 ± 200
